Reference: publication PMC11241344, “TriplEP-CPP: Algorithm for Predicting the Properties of Peptide Sequences” (International Journal of Molecular Sciences, 2024)
Peptide text beside a SMILES is read from it.

Key:
[1] = test system: human HaCaT keratinocyte cells; type: cell-based; conditions: MTT test, peptide C=0,1 mM (100 µM), 24 h incubation at 37 °C, 5% CO2, absorbance 570/690 nm, mean ± standard deviation (n = 5)
Description: (§1) Since the peptides predicted as CPPs are intended to be used as safe intracellular delivery systems, it is necessary to evaluate the degree of their toxicity to mammalian cells. For this purpose, the compounds investigated were added to human HaCaT keratinocyte cells and McCoy mouse fibroblast cells at a final concentration of 100 μM.
(§2) One of the most important criteria in the search for new penetrating peptides is to ensure the safety of their further use and to assess potential problems and risks. […] Therefore, we incubated human HaCaT keratinocyte and McCoy mouse fibroblast cells with our synthesized compounds at a final concentration of 100 μM for 24 h at 37 °C. […] The use of a fluorescent tag makes it possible to observe the penetration of the peptides as well as their distribution and localization within the cells. For this purpose, the synthesized compounds were conjugated with the fluorescent tag NBD-F and incubated with cells at a final concentration of […] for 4 h at 37 °C.
(§3) McCoy mouse fibroblast cell line (ATCC® CRL-1696™) was grown in a CO2 incubator at 37 °C, 5% CO2 in DMEM medium supplemented with 10% FBS and gentamicin (10 mkg/mL). Human immortalized keratinocyte line HaCaT cells (ATCC® PCS-200-011™) were grown in CO2-incubator at 37 °C, 5% CO2 in RPMI medium supplemented with 10% FBS and gentamicin (10 mkg/mL).
(§4) The cytotoxicity of the peptides was assessed using the MTT-test (3-(4,5-dimethylthiazol-2-yl)2,5-diphenyltetrazolium bromide) according to a standard protocol. McCoy, HaCaT cells were seeded in 96-well plates to a density of 5 × 10^3 cells and 3 × 10^3 cells in each well and incubated at 37 °C, 5% CO2 for 24 h. After 24 h incubation, the cells were washed with Hanks’ balanced salt solution (HBSS). The test peptides were tested at a final concentration of 100 µM in five replicates. Fresh culture medium without added peptides was used as a negative control. […] After adding 100 µL of the test compound to the cells, the samples were incubated at 37 °C, 5% CO2 for 24 h. Next, 10 µL of MTT working solution was added to each well, followed by incubating the cells for 4 h and adding 100 µL of solubilizing buffer to dissolve the formazan crystals. The amount of MTT was measured spectrophotometrically at 570 nm and 690 nm using a Multiskan Ascent microplate photometer (ThermoScientific, Waltham, MA, USA).
(§5) Results were processed using Microsoft Office Excel. During the evaluation of cell viability in the first step, the difference between the values obtained at 570 nm and 690 nm was found for each group of measurements. Then, dose-dependent curves were plotted for each cell line. […] The next step was to recalculate the values as a percentage of the positive control and obtain the mean values and standard deviation for each peptide.

[2] = test system: McCoy mouse fibroblast cells; type: cell-based; conditions: MTT test, peptide C=0,1 mM (100 µM), 24 h incubation at 37 °C, 5% CO2, absorbance 570/690 nm, mean ± standard deviation (n = 5)
Description: as §1, §2, §3, §4, §5

Compound	Percentage of Viable Cells, HaCaT [1] [%]	Percentage of Viable Cells, McCoy [2] [%]
CSCC[C@H](NC(=O)[C@H](Cc1c[nH]cn1)NC(=O)[C@H](Cc1c[nH]c2ccccc12)NC(=O)[C@@H](NC(=O)[C@@H](N)CCCCN)[C@@H](C)O)C(=O)N[C@H](C(=O)N[C@@H](Cc1ccc(O)cc1)C(=O)N1CCC[C@H]1C(=O)NCC(=O)NCC(=O)N[C@@H](Cc1ccc(O)cc1)C(=O)N[C@@H](CC(=O)O)C(=O)N[C@@H](Cc1c[nH]cn1)C(=O)N[C@H](C(=O)N[C@@H](CCCNC(=N)N)C(=O)NCC(=O)O)[C@@H](C)O)C(C)C [CpOH10] (H-KTWHMVYPGGYDHTRG-OH)	94.6 ± 3.3	94.4 ± 3.1
CC[C@H](C)[C@H](NC(=O)[C@H](CCC(N)=O)NC(=O)[C@H](Cc1c[nH]c2ccccc12)NC(=O)[C@H](CCC(N)=O)NC(=O)[C@H](Cc1ccc(O)cc1)NC(=O)[C@@H](N)CO)C(=O)N[C@@H](Cc1ccccc1)C(=O)N[C@@H](Cc1ccc(O)cc1)C(=O)N[C@@H](CCCNC(=N)N)C(=O)N[C@@H](CO)C(=O)N[C@@H](CC(C)C)C(=O)N[C@@H](CC(=O)O)C(=O)NCC(=O)N[C@@H](CO)C(=O)NCC(=O)N[C@@H](C)C(=O)N[C@@H](CCCCN)C(=O)N[C@@H](CCC(=O)O)C(=O)O [CpRE12] (H-SYQWQIFYRSLDGSGAKE-OH)	84.4 ± 4.0	87.6 ± 4.6
C[C@H](NC(=O)[C@H](C)NC(=O)[C@H](CCCCN)NC(=O)[C@@H](N)CO)C(=O)N[C@@H](CC(=O)O)C(=O)N[C@@H](CCC(=O)O)C(=O)N[C@@H](CO)C(=O)N[C@@H](CCC(=O)O)C(=O)N[C@@H](CCCNC(=N)N)C(=O)O [CpHM5] (H-SKAADESER-OH)	93.8 ± 2.4	96.3 ± 3.4
CC(C)C[C@H](NC(=O)[C@H](CCC(N)=O)NC(=O)[C@H](Cc1c[nH]c2ccccc12)NC(=O)[C@H](Cc1c[nH]cn1)NC(=O)[C@H](CCCCN)NC(=O)[C@H](CCCCN)NC(=O)[C@H](CCC(N)=O)NC(=O)[C@H](CCCNC(=N)N)NC(=O)[C@H](Cc1ccc(O)cc1)NC(=O)[C@H](Cc1c[nH]cn1)NC(=O)[C@H](Cc1ccccc1)NC(=O)[C@H](Cc1ccc(O)cc1)NC(=O)[C@H](CCCNC(=N)N)NC(=O)[C@@H](N)CS)C(=O)O [CpHI4] (H-CRYFHYRQKKHWQL-OH)	95.3 ± 3.5	95.5 ± 3.2
CC[C@H](C)[C@H](NC(=O)CN)C(=O)NCC(=O)N[C@@H](C)C(=O)N[C@H](C(=O)N[C@@H](CC(C)C)C(=O)N[C@@H](CCCCN)C(=O)N[C@H](C(=O)N[C@@H](CC(C)C)C(=O)N[C@H](C(=O)N[C@H](C(=O)NCC(=O)N[C@@H](CC(C)C)C(=O)N1CCC[C@H]1C(=O)N[C@@H](C)C(=O)N[C@@H](CC(C)C)C(=O)N[C@H](C(=O)N[C@@H](CO)C(=O)N[C@@H](Cc1c[nH]c2ccccc12)C(=O)N[C@H](C(=O)N[C@@H](CCCCN)C(=O)N[C@@H](CCCNC(=N)N)C(=O)N[C@@H](CCCCN)C(=O)N[C@@H](CCCNC(=N)N)C(=O)N[C@@H](CCC(N)=O)C(=O)N[C@@H](CCC(N)=O)C(N)=O)[C@@H](C)CC)[C@@H](C)CC)[C@@H](C)O)[C@@H](C)O)C(C)C)C(C)C [melittin, reference compound]	0.1 ± 0.1	0.0
CC(C)[C@H](NC(=O)[C@@H](N)[C@@H](C)O)C(=O)N[C@@H](C)C(=O)N[C@@H](CC(N)=O)C(=O)N[C@@H](Cc1ccccc1)C(=O)N[C@@H](CCCCN)C(=O)N[C@H](C(=O)N[C@@H](CC(N)=O)C(=O)N[C@@H](CO)C(=O)N[C@@H](C)C(=O)N[C@@H](C)C(=O)N1CCC[C@H]1C(=O)N1CCC[C@H]1C(=O)N[C@@H](C)C(=O)N[C@@H](C)C(=O)N[C@@H](CCC(=O)O)C(=O)N1CCC[C@H]1C(=O)N1CCC[C@H]1C(=O)N[C@@H](CCCNC(=N)N)C(=O)O)[C@@H](C)O [CpRE13] (H-TVANFKTNSAAPPAAEPPR-OH)	90.6 ± 3.6	89.7 ± 3.3
CC[C@H](C)[C@H](NC(=O)[C@H](C)N)C(=O)N[C@@H](CCCNC(=N)N)C(=O)N[C@@H](CC(N)=O)C(=O)N[C@@H](CC(=O)O)C(=O)N[C@@H](CCC(=O)O)C(=O)N[C@@H](CCC(=O)O)C(=O)N[C@@H](CC(C)C)C(=O)N[C@@H](CC(N)=O)C(=O)N[C@@H](CCCCN)C(=O)O [CpHM6] (H-AIRNDEELNK-OH)	92.2 ± 2.9	95.3 ± 3.4
